According to US20230133958A1, “COMPOUNDS USEFUL IN MODULATING EGFR AND PI3K” (Mekanistic Therapeutics LLC, priority 2021, published 2023):
Values after ≈ are worked out from the molar mass of the structure shown.

Experiments:
[1] = Metabolic stability in mouse liver microsomes; assay type: in vitro ADME; conditions: Mouse Liver Microsome (MLM)
Method: (§1) Working solution: 5 µL of compound and control stock solution (10 mM in dimethyl sulfoxide (DMSO)) were diluted with 495 µL of acetonitrile (ACN) (intermediate solution concentration: 100 µM, 99% ACN)
(§2) NADPH Cofactor Preparation: NADPH powder: β-Nicotinamide adenine dinucleotide phosphate reduced form, tetrasodium salt; NADPH 4 Na. The appropriate amount of NADPH powder was weighed and diluted into a 10 mM MgCl2 solution (working solution concentration: 10 unit/mL; final concentration in reaction system: 1 unit/mL)
(§3) Liver Microsomes Preparation: The appropriate concentrations of microsome working solutions were prepared in 100 mM potassium phosphate buffer. Cold (4° C.) acetonitrile (ACN) containing 200 ng/mL tolbutamide and 200 ng/mL labetalol as internal standards (IS) was used as the stop solution
(§4) Assay Procedure: Pre-warm empty ‘Incubation’ plates T60 and NCF60 for 10 minutes. Dilute liver microsomes to 0.56 mg/mL in 100 mM phosphate buffer. Transfer 445 µL microsome working solutions (0.56 mg/mL) into pre-warmed ‘Incubation’ plates T60 and NCF60, Then pre-incubate ‘Incubation’ plates T60 and NCF60 for 10 min at 37° C. with constant shaking. […]
(§5) The biological stability of the compounds of the invention can be measured by determining its ½ life in the presence microsomes. […]

[2] = Metabolic stability in human liver microsomes; assay type: in vitro ADME; conditions: Human Liver Microsome (HLM)
Method: as §1, §2, §3, §4, §5

[3] = Solubility assessment in aqueous media; assay type: physicochemical; conditions: kinetic from dmso stock, 25° C.
Method: Preparation of stock solutions: The stock solutions of test compounds and control compound diclofenac were prepared in DMSO at the concentrations of 10 mM.
Procedure for solubility determination: 15 µL of stock solution (10 mM) of each sample was placed in order into their proper 96-well rack. 485 µL of (SIF, SGF, PBS 7.4, FESSIF, or FESSGF) was added into each vial of the cap-less Solubility Sample plate. The assay was performed in duplicate. Add one stir stick to each vial and seal using a molded PTFE/Silicone plug. […] After completion of the 2 hours, plugs were removed and the stir sticks were removed using a big magnet, the samples from the Solubility Sample plate were transferred into the filter plate. Using the Vacuum Manifold, all the samples were filtered. Aliquot of 5 µL and 5 µL DMSO were taken from the filtrate followed by addition of 490 µL of a mixture of H2O and acetonitrile containing internal standard (1:1). A certain proportion of ultrapure water was used to dilute the diluent according to the peak shape. The dilution factor was changed according to the solubility values and the LC-MS signal response.
Preparation of 300 µM standards (STD): From the 10 mM DMSO STD plate, 6 µL was transferred into the remaining empty plate, and then 194 µL of DMSO was added to that plate to have a STD concentration of 300 µM. From the 300 µM DMSO STD plate, 5 µL DMSO STD and 5 µL SIF was transferred into the remaining empty plate, and then 490 µL of a mixture of H2O and acetonitrile containing internal standard (1:1) was added to that plate to have a final STD concentration of 3 µM. […]
Procedure for sample analysis: The plate was placed into the well plate autosampler. The samples were evaluated by LC-MS/MS analysis.
Data analysis: All calculations were carried out using Microsoft Excel. The filtrate was analyzed and quantified against a standard of known concentration using LC coupled with mass spectral peak identification and quantitation. Solubility values of the test compound and control compound were calculated as follows: […]

For CS(=O)(=O)Nc1cc(-c2ccc3ncnc(Nc4cccc(Cl)c4F)c3c2)cnc1Cl [Compound 6, N-[2-chloro-5-[4-(3-chloro-2-fluoro-anilino)quinazolin-6-yl]-3-pyridyl] methanesulfonamide], the half-life at 1 µM [1] was 10 to 100 min, the half-life at 1 µM [2] was 10 to 100 min and the solubility at 2 h ([3]; PBS pH 7.4, aqueous buffer, pH 7.4 Buffer) was 5 to 100 µM (≈ 2.39 to 47.8 µg/mL). The solubility at 2 h ([3]; fassgf or other biorelevant, Simulated Intestinal Fluid (SIF)) was 5 to 100 µM (≈ 2.39 to 47.8 µg/mL) and the solubility at 2 h ([3]; Simulated Gastric Fluid (SGF)) was over 200 µM.
